Test [1] addresses T1, 2-methylserotonin-induced contraction of the ileum (5-HT3 antagonism) (Cavia porcellus, UniProt O70212).
T1 construct: from tissue; host or cells: isolated nonterminal ileum of male Hartley guinea pig
T1 sequence (O70212 20-490): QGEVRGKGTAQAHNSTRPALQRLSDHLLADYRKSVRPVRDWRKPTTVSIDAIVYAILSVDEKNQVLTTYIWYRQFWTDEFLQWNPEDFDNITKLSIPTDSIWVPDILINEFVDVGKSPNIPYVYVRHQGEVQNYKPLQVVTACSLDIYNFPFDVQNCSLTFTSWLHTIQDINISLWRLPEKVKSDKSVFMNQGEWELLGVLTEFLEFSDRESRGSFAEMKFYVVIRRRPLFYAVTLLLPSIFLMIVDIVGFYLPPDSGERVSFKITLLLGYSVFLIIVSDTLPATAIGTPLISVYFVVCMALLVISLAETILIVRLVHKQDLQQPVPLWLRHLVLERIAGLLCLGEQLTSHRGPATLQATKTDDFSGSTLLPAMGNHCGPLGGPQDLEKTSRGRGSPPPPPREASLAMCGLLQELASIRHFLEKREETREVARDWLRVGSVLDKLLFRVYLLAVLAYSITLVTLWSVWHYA
Description: Antagonism against 2-methylserotonin-induced contraction or systole of ileum. The class given is cell-based, guinea pig (Hartley male). As to conditions: test compound added 30 minutes before 2-methylserotonin, nonterminal ileum, 37° C.; for Kb: read-out: pA2 (converted). The protocol: Antagonism against 2-methylserotonin-induced contraction or systole of ileum
This experiment was made according to the method of Sanger et al. [see Eur. J. Pharmacol., 159, 113-124 (1989)]. The nonterminal ileum of a Hartley male guinea pig was suspended in the Krebs-Henseleit solution (37° C.) by applying a load of 0.5 g to the end of the ileum and a gaseous mixture comprising 95% of oxygen and 5% of carbon dioxide was passed through the solution. The contraction of the ileum was isometrically determined. After allowing the ileum to stand for one or more hours for stabilization, a solution of a test compound was added to the solution, and after 30 minutes, 2-methylserotonin was noncumulatively added. The pA2 value was calculated from the rightward shift of the dose-response curve of the 2-methylserotonin-induced contraction caused by the test compound according to the method of Rossum et al. [see Arch. Int. Pharmacodyn., 143, 299(1963)]. BRL 24682 was used as a control in this experiment.

In test [2] the test system is contraction of guinea pig ileum induced by electrical field stimulation (acetylcholine release). The experiment in a line: Effect of increasing contraction of guinea pig ileum induced by electrical field stimulation. The class given is cell-based. To be noted: electrical field stimulation once per 10 seconds, cumulative addition at intervals of 10 minutes, 37° C., read-out: Min. concn. causing increment of ileal contraction. The protocol:
Effect of increasing contraction of guinea pig ileum induced by electrical field stimulation
This experiment was made according to the method of Sanger et al. [see Br. J. Pharmacol., 91, 77-87 (1987)]. The longitudinal muscle of the nonterminal ileum of a guinea pig was separated and vertically suspended in the Krebs-Henseleit solution (37° C.) in a Magnus tube by applying a load of 0.5 g to the end of the muscle. A mixed gas comprising 95% of oxygen and 5% of carbon dioxide was passed through the solution. The contraction of the muscle was isometrically determined. Electrical field stimulation was applied to the muscle by the use of a platinum electrode once per 10 seconds to induce the contraction of the muscle. The contraction was caused through the release of acetylcholine. After the muscle had been stabilized, a solution of a test compound was cumulatively added into the Magnus tube at intervals of 10 minutes. The effect of the test compound is represented by percentage based on the initial contraction. The minimum concentration of each test compound at which an increment was found in the contraction due to the release of acetylcholine is shown in Table 4.

The subject of test [3] is gastric emptying function. The experiment in a line: Activity for raising gastric emptying function. The test is classed as in vivo, Fischer male rats. To be noted: oral (5 ml/kg), one hour before test food, versus control rat. The protocol:
Activity for raising gastric emptying function
This experiment was made according to the method of Decktot et al. [see Eur. J. Pharmacol., 147, 313-316 (1988)]. Fischer male rats (weight: 160 to 180 g) were fasted for 18 hours before 3 ml of a test food comprising methylcellulose, beef broth, casein, sugar and corn starch was orally administered to each rat. One hour after the administration, the stomach was extirpated from each rat. The gastric emptying ratio was calculated from the weight of the test food remaining in the stomach. The ratio of rise of the gastric emptying function was determined by comparing the gastiric emptying ratio of a medicated rat with that of a control rat which had not administered any test compounds. Each test compound (5 ml/kg) was orally administered one hour before the administration of the test food. BRL 24682 was used as a control in this experiment.

Structures can show the parent of a compound that is named as a salt. Where two headings read alike, the source gives them in different places.

For the compound `CC#CC(C)Oc1cc(N)c(Cl)cc1C(=O)N[C@H]1C[C@H]2CC[C@@H](C1)N2C` (single isomer, unassigned; (+)) [Example 36, (+)-endo-4-Amino-5-chloro-N-(8-methyl-8-azabicyclo[3.2.1]oct-3-yl)-2-{(3-pentyn-2-yl)oxy}benzamide hydrochloride], the Kb in test [1] is 1.91 nM. Also, the minimal effective concentration in test [2] (listed as 36 (-)-isomer, hydrochloride) came out at 0.26 µM.
For the compound `C#CC(CC)Oc1cc(N)c(Cl)cc1C(=O)N[C@H]1C[C@H]2CC[C@@H](C1)N2C` (single isomer, unassigned; (+)) [Example 38, (+)-endo-4-Amino-5-chloro-N-(8-methyl-8-azabicyclo[3.2.1]oct-3-yl)-2-{(1-pentyn-3-yl)oxy}benzamide hydrochloride], the Kb in test [1] is 0.955 nM. In addition, the minimal effective concentration in test [2] (listed as 38 (-)-isomer, hydrochloride) is recorded as 0.13 µM. Besides, the “Ratio of rise of gastric emptying function” value in test [3] (listed as 38 (+)-isomer, hydrochloride) turned out to be 20.5%.
In the case of `C#CC(CC)Oc1cc(N)c(Cl)cc1C(=O)N[C@H]1C[C@H]2CC[C@@H](C1)N2C` (single isomer, unassigned; (-)) [Example 37, (-)-endo-4-Amino-5-chloro-N-(8-methyl-8-azabicyclo[3.2.1]oct-3-yl)-2-{(1-pentyn-3-yl)oxy}benzamide hydrochloride], the minimal effective concentration in test [2] (listed as 37 (+)-isomer, hydrochloride) stood at 0.048 µM. The “Ratio of rise of gastric emptying function” value in test [3] (listed as 37 (-)-isomer, hydrochloride) is 15.3%.
In general, pA2 refers to the negative logarithm of the molar antagonist concentration that doubles the agonist concentration needed for the same response. A higher pA2 goes with a more potent antagonist. In test [1], `COc1cc(N)c(Cl)cc1C(=O)NC1CC2CCC(C1)N2C` (stereo not shown) [BRL 24682, reference compound] displayed a pA2 of 7.80. In addition, in test [2], the minimal effective concentration worked out at 0.086 µM. In test [3], the “Ratio of rise of gastric emptying function” value amounted to 12.9%.
Take `CC#CC(C)Oc1cc(N)c(Cl)cc1C(=O)N[C@H]1C[C@H]2CC[C@@H](C1)N2C` (stereo partly drawn) [Example 2, endo-4-Amino-5-chloro-N-(8-methyl-8-azabicyclo[3.2.1]oct-3-yl) -2-{(3-pentyn-2-yl)oxy}benzamide hydrochloride]: the Kb in test [1] was 2.09 nM. Moreover, in test [2] (Cavia porcellus, 10 min), the minimal effective concentration came to 0.05 µM. Also, the “Ratio of rise of gastric emptying function” value in test [3] came out at 24.5%.
In the case of `C#CC(CC)Oc1cc(N)c(Cl)cc1C(=O)N[C@H]1C[C@H]2CC[C@@H](C1)N2C` (stereo partly drawn) [Example 20, endo-4-Amino-5-chloro-N-(8-methyl-8-azabicyclo[3.2.1]oct-3-yl)-2-{(1-pentyn-3-yl)oxy}benzamide hydrochloride], in test [2] (Cavia porcellus, 10 min), the minimal effective concentration came to 0.11 µM.
As to `CC#CCOc1cc(N)c(Cl)cc1C(=O)N[C@H]1C[C@H]2CC[C@@H](C1)N2C` [Example 22, endo-4-Amino-2-(2-butynyloxy)-5-chloro-N-(8-methyl-8-azabicyclo[3.2.1]oct-3-yl)benzamide hydrochloride], the minimal effective concentration in test [2] (Cavia porcellus, 10 min) was > 100 µM.
Regarding `CC#CCCOc1cc(N)c(Cl)cc1C(=O)N[C@H]1C[C@H]2CC[C@@H](C1)N2C` [Example 23, endo-4-Amino-5-chloro-N-(8-methyl-8-azabicyclo[3.2.1]oct-3-yl)-2-(3-pentynyloxy)benzamide hydrochloride], the minimal effective concentration in test [2] (Cavia porcellus, 10 min) is > 100 µM.
For `C#CC(C)Oc1cc(N)c(Cl)cc1C(=O)N[C@H]1C[C@H]2CC[C@@H](C1)N2C` (stereo partly drawn) [Example 24, endo-4-Amino-2-{(3-butyn-2-yl)oxy}-5-chloro-N-(8-methyl-8-azabicyclo[3.2.1]oct-3-yl)benzamide hydrochloride], in test [2] (Cavia porcellus, 10 min), the minimal effective concentration worked out at 0.17 µM. Besides, in test [3], the “Ratio of rise of gastric emptying function” value was 13.2%.
In the case of `CCC#CC(CC)Oc1cc(N)c(Cl)cc1C(=O)N[C@H]1C[C@H]2CC[C@@H](C1)N2C` (stereo partly drawn) [Example 25, endo-4-Amino-5-chloro-2-{(4-heptyn-3-yl)oxy)-N-(8-methyl-8-azabicyclo[3.2.1]oct-3-yl)benzamide hydrochloride], the Kb in test [1] is 0.891 nM. The minimal effective concentration in test [2] (Cavia porcellus, 10 min) turned out to be 1 µM. Further, in test [3], the “Ratio of rise of gastric emptying function” value is 26.3%.
With `CCC#CCC(C)Oc1cc(N)c(Cl)cc1C(=O)N[C@H]1C[C@H]2CC[C@@H](C1)N2C` (stereo partly drawn) [Example 26, endo-4-Amino-S-chloro-2-{(4-heptyn-2-yl)oxy}-N-(8-methyl-8-azabicyclo[3.2.1]oct-3-yl)benzamide hydrochloride], the Kb in test [1] is 0.468 nM. Moreover, the minimal effective concentration in test [2] (Cavia porcellus, 10 min) is > 100 µM.
Turning to `CC#CC(CC)Oc1cc(N)c(Cl)cc1C(=O)N[C@H]1C[C@H]2CC[C@@H](C1)N2C` (stereo partly drawn) [Example 27, endo-4-Amino-5-chloro-2-{(2-hexyn-4-yl)oxy}-N-(8-methyl-8-azabicyclo[3.2.1]oct-3-yl)benzamide hydrochloride], the Kb in test [1] is 0.407 nM. Besides, the minimal effective concentration in test [2] (Cavia porcellus, 10 min) was determined as 0.25 µM. The “Ratio of rise of gastric emptying function” value in test [3] was 17.2%.
In the case of `CCC#CC(C)Oc1cc(N)c(Cl)cc1C(=O)N[C@H]1C[C@H]2CC[C@@H](C1)N2C` (stereo partly drawn) [Example 28, endo-4-Amino-5-chloro-2-{(3-hexyn-2-yl)oxy}-N-(8-methyl-8-azabicyclo[3.2.1]oct-3-yl)benzamide hydrochloride], the minimal effective concentration in test [2] (Cavia porcellus, 10 min) is > 100 µM.
As for `CN1[C@@H]2CC[C@H]1C[C@@H](NC(=O)c1cc(Cl)c(N)cc1OCCF)C2` [Example 30, endo-4-Amino-5-chloro-2-(2-fluoroethoxy)-N-(8-methyl-8-azabicyclo[3.2.1]oct-3-yl)benzamide hydrochloride], the minimal effective concentration in test [2] (Cavia porcellus, 10 min) worked out at 0.038 µM.
Still for that read-out and setting: next, `CN1[C@@H]2CC[C@H]1C[C@@H](NC(=O)c1cc(Cl)c(N)cc1OCCCC#N)C2` [Example 31, endo-4-Amino-5-chloro-2-(3-cyanopropoxy)-N-(8-methyl-8-azabicyclo[3.2.1]oct-3-yl)benzamide hydrochloride]: > 100 µM.
Regarding `CN1[C@@H]2CC[C@H]1C[C@@H](NC(=O)c1cc(Cl)c(N)cc1OC1CCOCC1)C2` [Example 33, endo-4-Amino-5-chloro-N-(8-methyl-8-azabicyclo[3.2.1]-oct-3-yl)-2-(tetrahydro-4H-pyran-4-oxy)benzamide hydrochloride], the Kb in test [1] was 6.17 nM. In test [2] (Cavia porcellus, 10 min), the minimal effective concentration was 1.8 µM.
For the compound `C#CCC(C)Oc1cc(N)c(Cl)cc1C(=O)N[C@H]1C[C@H]2CC[C@@H](C1)N2C` (stereo partly drawn) [Example 40, endo-4-Amino-5-chloro-N-(8-methyl-8-azabicyclo[3.2.1]oct-3-yl)-2-{(4-pentyn-2-yl)oxy}benzamide hydrochloride], the minimal effective concentration in test [2] (Cavia porcellus, 10 min) was 0.22 µM. For the same compound, the “Ratio of rise of gastric emptying function” value in test [3] was determined as 16.2%.
Take `C#CCCOc1cc(N)c(Cl)cc1C(=O)N[C@H]1C[C@H]2CC[C@@H](C1)N2C` [Example 46, endo-4-Amino-2-(3-butynyloxy)-5-chloro-N-(8-methyl-8-azabicyclo[3.2.1]oct-3-yl)benzamide hydrochloride]: the minimal effective concentration in test [2] (Cavia porcellus, 10 min) was 0.16 µM.
